In series [1] the test system is adhesion formation at the site of sidewall injury. The series can be described thus: Peritoneal sidewall adhesion model (rabbit). The format is in vivo. The following applies: for Adhesion Area / Adhesion Tenacity: individual animals; for Adhesion Area Mean/SEM: group mean; for Adhesion Tenacity Mean/SEM (mean of the rank of the tenacity): group mean rank; for Adhesion Tenacity: score 0-3. On the procedure:
Multiple studies to confirm the efficacy of histamine H4 receptor antagonists in the reduction or inhibition of adhesion formation after peritoneal surgery were performed using a sidewall adhesion model.
Animals: Twenty eight female New Zealand White rabbits, 2.4-2.7 kg, were purchased from Irish Farms and quarantined for at least 2 days prior to use. The rabbits were housed on a 12:12 light:dark cycle with food and water available ad libitum.
Rabbits were anesthetized with a mixture of 55 mg/kg ketamine hydrochloride and 5 mg/kg Rompum intramuscularly. Following preparation for sterile surgery, a midline laparotomy was performed. A polyethylene catheter (Clay Adams polyethylene tubing PE-60 ID 0.76 mm (0.030″) OD 1.22 mm (0.048″)) was introduced into the peritoneal cavity and sutured to the sidewall with 5-0 Ethilon. For local administration, an Alzet miniosmotic pump (10 μl/hour, 2 ml, Model 2ML1 from Durect), filled with one dosage level or placebo (water for injection) control at 10 μl/hour over 7 days starting with the day of surgery was placed in the subcutaneous space. The catheter was then attached to the pump and the midline muscle incision was closed around the catheter. The cecum and bowel were exteriorized and digital pressure was exerted to create subserosal hemorrhages over all surfaces. The damaged intestine was then lightly abraded with 4″×4″ 4-ply sterile gauze until punctate bleeding was observed. The cecum and bowel was then returned to their normal anatomic position. A 5×3 cm area of peritoneum and transversus abdominous muscle was removed on the right lateral abdominal wall. The incision was closed in two layers with 3-0 Vicryl (Ethicon, Somerville, N.J.). The pump was replaced at day 7.
Twenty-one days after surgery, rabbits were sacrificed by intravenous EuthaSol. Adhesion formation at the site of sidewall injury was assessed by examination to determine the percentage of the area of the sidewall injury involved in adhesions. The percentage of a surface of the sidewall involved in adhesions to various organs are given in the tables below to quantify the overall adhesion score. In addition, tenacity of the adhesion formed was scored using a system as follows:
1=mild, easily dissectible adhesions;
3=dense adhesions; non-dissectible, tears when removed.
The difference in adhesion formation between the control and treated groups were analyzed by Student's t-test. A reduction in the area and the tenacity of the adhesions would be considered beneficial and efficacious.
General observations were conducted on each animal (appearance, behavior, clinical signs, symptoms, moribundity, mortality, and physical examinations) prior to assignment to study and on the day of necropsy. On the day of necropsy data and observations were recorded with particular attention to inflammation, granulomatous material and adhesion formation at the treatment site. All biocompatibility results were recorded, and the level of reaction was noted (none, mild, moderate, severe).

Series [2] shares this test system. Briefly: Peritoneal sidewall adhesion model (rabbit). The format is in vivo. The following applies: individual animals.
Setting [3] is: 5 mg/ml, non-systemic by Alzet pump, 21 days after surgery.
Setting [4] is: 5 mg/ml, non-systemic by pump, result in words.

Where “and” joins values, the source holds several entries; their conditions need not be identical. Identical values can stand only once.

`CN1CCN(C(=O)c2c[nH]c3ccc(Cl)cc23)CC1` [(5-Chloro-1H-indol-3-yl)-(4-methyl-piperazin-1-yl)-methanone]: the “Adhesion Area” value in series [1] (5 mg/ml, non-systemic by Alzet pump 10 μl/hour, 21 days after surgery) is 60 percentage and 70 percentage and 40 percentage and 80 percentage and 50 percentage and 100 percentage (2×). Moreover, in series [1] (setting [3]), the “Adhesion Area Mean/SEM” value is 71.4 ± 8.8 percentage; the “Adhesion Tenacity Mean/SEM (mean of the rank of the tenacity)” value is given as 6.93 ± 1.4; the “Adhesion Tenacity” value is 1 (6×) and 2. Also, the clinical signs result in series [1] (5 mg/ml, non-systemic by pump, general observations) is on record as “No other rabbits showed any clinical signs”. Further, the “inflammatory or granulomatous reactions in the peritoneal cavity” value in series [1] (5 mg/ml, non-systemic by pump, necropsy observation) is recorded as “no inflammatory or granulomatous reactions”. In addition, in series [1] (setting [4]), the “area of adhesions versus control” value is “significantly reduced” and the “tenacity of adhesions versus control” value is given as “significantly reduced”.

With `Cc1cc(C)c2nc(-c3cnc(NCCCC4CCN(C)CC4)nc3C)[nH]c2c1` [Test Compound, [5-(4,6-dimethyl-1H-benzoimidazol-2-yl)-4-methyl-pyrimidin-2-yl]-[3-(1-methyl-piperidin-4-yl)-propyl]-amine], the “Adhesion Area” value in series [1] (0.1 mg/ml, non-systemic (pump), 21 days after surgery) was 80 percentage (2×) and 100 percentage (3×) and 70 percentage (2×); in series [1] (1 mg/ml, non-systemic (pump), 21 days after surgery), 80 percentage (3×) and 70 percentage and 60 percentage (3×); in series [1] (10 mg/ml, non-systemic (pump), 21 days after surgery), 100 percentage (2×) and 60 percentage (2×) and 80 percentage (2×) and 90 percentage; in series [2] (30 mg/kg orally (gavage on day of surgery and four additional days), 21 days after surgery), 100 percentage (3×) and 40 percentage and 70 percentage and 80 percentage and 60 percentage. The “Adhesion Area Mean/SEM” value in series [1] (0.1 mg/ml, non-systemic (pump)) turned out to be 85.7 ± 5.28 percentage; in series [1] (1 mg/ml, non-systemic (pump)), 70 ± 10 percentage; in series [1] (10 mg/ml, non-systemic (pump)) it was 81.4 ± 6.34 percentage; in series [1] (30 mg/kg orally), 78.6 ± 8.85 percentage. The “Adhesion Tenacity Mean/SEM (mean of the rank of the tenacity)” value worked out at 20.1 ± 3.37 in series [1] (0.1 mg/ml, non-systemic (pump)); 13.9 ± 3.38 in series [1] (1 mg/ml, non-systemic (pump)); 18.3 ± 1.43 in series [1] (10 mg/ml, non-systemic (pump)); 17.6 ± 5.27 in series [1] (30 mg/kg orally). For the same compound, the “Adhesion Tenacity” value in series [1] (0.1 mg/ml, non-systemic (pump)) was 2 (5×) and 3 and 1; in series [1] (1 mg/ml, non-systemic (pump)) it was 2 (4×) and 1 (3×); in series [1] (10 mg/ml, non-systemic (pump)), 2 (6×) and 1; in series [2] (30 mg/kg orally, score 0-3) it was 3 (2×) and 1 (3×) and 2 (2×). The tenacity of adhesions result in series [1] (mid-dose (1 mg/ml) administered by pump, not statistically significant, result in words) is on record as “appeared reduced”. Besides, in series [1] (mid-dose (1 mg/ml) administered by pump, result in words), the “area of adhesion reduction” value was “statistically significant”.

Values taken from US20130202685A1, “Use of a histamine H4 antagonist for the treatment of post-operative adhesions” (Janssen Pharmaceutica NV, priority 2008, published 2013).
